Test results taken from US8614341B2, “Amorphous silibinin for the treatment of viral hepatitis” (Euromed S.A., priority 2009, dated 2013).

How the values were obtained:
[1] = Solubility (HPLC - Ph. Eur. 01/2007:2071) after 30 min; format: physicochemical
Protocol: A “silibinin release rate of 80% or greater” means that the amorphous silibinin is at least 80% soluble in aqueous solution (standard according to Ph. Eur.).
Several lots of silibinin manufactured according to the method of the invention, including steps L and M, were analyzed using the XRPD method described in example 2.
Solubility of this product (HPLC—Ph. Eur. 01/2007:2071) after 30 min. is higher than 80%. Conversely the silibinin obtained according to the method of the invention without performing steps L and M, though of high chemical purity is mainly crystalline (typically more than 70% crystalline).
Solubility of this product (HPLC—Ph. Eur. 01/2007:2071) after 30 min. is lower than 80%.

[2] = Storage stability of the amorphous state (XRPD assessment); format: physicochemical; conditions: single polyethylene bag, 2 months
Protocol: For quantitative XRPD assessment ZnO (XRPD spectrum FIG. 3A) was used as internal standard. Three characteristics peaks of crystalline sylibinin (2-theta: 20.7, 22.3 and 24.5°) were chosen for the quantitative determination of the crystalline form and peaks at 2-theta: 56.6 and 62.8° of the internal standard (IS, ZnO) were used as reference as reported in FIG. 3B.
XRPD spectra were obtained using X'Pert diffractometer from PANalytical, using the following parameters for acquisition and data processing:
Silibinin samples obtained according to the present invention were stored at 4±2° C. at 60% R.H., 25±2° C. at 60±5% R.H. and 40±2° C. at 60±5% R.H., in a single polyethylene bag for 2 months. After this time the samples were analyzed by XRPD.

Solubility (HPLC - Ph. Eur. 01/2007:2071) [1]	stability of amorphous state (XRPD) ([2]; 4±2° C. at 60% R.H.)	stability of amorphous state (XRPD) ([2]; 25±2° C. at 60±5% R.H.)	stability of amorphous state (XRPD) ([2]; 40±2° C. at 60±5% R.H.)	Compound
lower than 80%	–	–	–	COc1cc(C2Oc3cc(C4Oc5cc(O)cc(O)c5C(=O)C4O)ccc3OC2CO)ccc1O (stereo not drawn) [silibinin obtained without performing steps L and M] [reference compound]
higher than 80%	stable	stable	stable	COc1cc(C2Oc3cc(C4Oc5cc(O)cc(O)c5C(=O)C4O)ccc3OC2CO)ccc1O (stereo not drawn) [amorphous silibinin, silibinin]
–	–	extended crystallization	–	COc1cc(C2Oc3cc(C4Oc5cc(O)cc(O)c5C(=O)C4O)ccc3OC2CO)ccc1O (stereo not drawn) [amorphous silibinin samples, containing about 10% of crystal] [reference compound]
